Experimental data from patent US8354401B2, “Oxazolidinone amide aromatic compounds for supressing MMP-9 production” (Mitsubishi Tanabe Pharma Corporation, priority 2008, dated 2013).

Tests used:
[1] = system: proMMP-2 production by THP-1 cell; experiment: Action of THP-1 cell on hemostatic type proMMP-2 production (ELISA of culture supernatant); assay type: cell-based, human; conditions: THP-1 cells, 24 hr
Protocol: Action of THP-1 Cell on Hemostatic Type proMMP-2 Production
(§1) THP-1 cell (human monocytic leukemia cell line) was adjusted to 1×10^7 cells/mL in a culture medium (10% fetal bovine serum/RPMI1640 medium), and dispensed to a 96 well multiplate. This was equilibrated under the conditions of 37° C./5% CO2, and a culture medium containing a test compound was added thereto. After incubation under the conditions of 37° C./5% CO2 for 24 hr, the culture medium was centrifugated and the culture supernatant was collected, which was subjected to the following measurement.
Quantification of proMMP-2 in Culture Supernatant
The proMMP-2 concentration of the collected culture supernatant was quantified using a commercially available measurement reagent (manufactured by GE Healthcare, MMP-2, Human, Biotrak ELISA System).
Calculation of proMMP-2 Suppression Rate
The proMMP-2 suppression rate of the test compound was calculated from the following formula: % suppress=100−((Test/Cont)×100). wherein Cont is proMMP-2 concentration of culture supernatant without addition of a test compound (added with solvent alone) and Test is proMMP-2 concentration of culture supernatant with addition of a test compound.

[2] = system: proMMP-9 production by human TNFα stimulated THP-1 cell; experiment: Action of human TNFα stimulated THP-1 cell on proMMP-9 production (ELISA of culture supernatant); assay type: cell-based; conditions: THP-1 cells, human TNFα 10 ng/mL, 24 hr; IC50 from 10, 100 and 1,000 nmol/L; read-out: Experimental Example 1 proMMP-9 production suppression (IC50)
Protocol: Action of Human TNFα Stimulated THP-1 Cell on proMMP-9 Production
as §1, with “containing human TNFα (final concentration 10 ng/mL) and” for “containing”
Quantification of proMMP-9 in Culture Supernatant
The proMMP-9 concentration of the collected culture supernatant was quantified using a commercially available measurement reagent (manufactured by GE Healthcare, MMP-9, Human, Biotrak ELISA System).
Calculation of proMMP-9 Suppression Rate
The proMMP-9 suppression rate of the test compound was calculated from the following formula: % suppression=100−((Test−Min)/(Max−Min)×100) wherein Max is proMMP-9 concentration of culture supernatant induced by stimulation with human TNFα, without addition of a test compound (added with solvent alone) • Min is proMMP-9 concentration of culture supernatant without addition of a test compound (added with solvent alone) and without stimulation with human TNFα, and • Test is proMMP-9 concentration of culture supernatant induced by stimulation with human TNFα when a test compound is added.
Furthermore, the concentration of the test compound necessary for suppressing proMMP-9 production by human TNFα stimulated THP-1 cell by 50% (IC50 value) was calculated from 3 points of proMMP-9 suppression rate at test compound concentrations of 10, 100 and 1,000 nmol/L.

[3] = system: rat monoiodoacetic acid-induced osteoarthritis model; experiment: Suppressive action on articular joints injury of rat monoiodoacetic acid-induced osteoarthritis model; assay type: in vivo; conditions: LEW rat
Protocol: Suppressive Action on Articular Joints Injury of Rat Monoiodoacetic Acid-Induced Osteoarthritis Model
Monoiodoacetic acid solution (0.3 mg/25 μL) was injected into the right hindpaw knee joint cavity of anesthetized rats (LEW, male, 7-week-old). […] On day 7, right hindpaw knee joint was taken from euthanized rats, and fixed with 10% neutral formalin solution. A pathology specimen of knee joint was prepared, stained with Hematoxylin Eosin and Safranine O, and the state of joint cartilage injury was scored under microscopic observation. For articular joint injury scores, changes in each pathological finding in medial condyle of femur and medial condyle of tibia (cartilage surface tuberosity, erosion/ulcer/fibrillation, chondrocyte disorganization/disappearance/hypertrophy, reduction of Safranine staining) were divided into mild, moderate and severe according to the method of Kobayashi et al. (Kobayashi K et al. J. Vet. Med. Sci. 65, 1195 1199 2003), and indicated in the scores of 1, 2 and 3 and totaled. Furthermore, an average of the score of medial condyle of femur and that of medial condyle of tibia was determined and used as an articular joint injury score.

[4] = system: rat dinitrobenzene-induced colitis model; experiment: Suppressive action on large intestine weight increase of rat dinitrobenzene-induced colitis model; assay type: in vivo; conditions: Wistar rat, 30 mg/kg oral once a day to day 7, measured day 8
Protocol: Suppressive Action on Large Intestine Weight Increase of Rat Dinitrobenzene-Induced Colitis Model
A dinitrobenzene solution (30 mg/0.1 mL) was injected into the large intestine of anesthetized rats (Wistar, male, 6-week-old). A test compound was orally administered once a day from the previous day of the dinitrobenzene injection to day 7 at a dose of 30 mg/kg. On day 8, the large intestine was isolated from euthanized rats, and the wet weight thereof was measured. The large intestine weight was amended to the weight per 100 g body weight of the rats on day 8.

[5] = system: rat adjuvant induced arthritis model; experiment: Suppressive action on hindpaw edema of rat adjuvant induced arthritis model; assay type: in vivo; conditions: LEW rat, difference of hindpaw volume day 15 vs day 21, in mL (unit assumed)
Protocol: Suppressive Action on Hindpaw Edema of Rat Adjuvant Induced Arthritis Model
Anesthetized rats (LEW, male, 6-week-old) were immunized with M. Butyricum (5 mg/mL) at a dose of 0.1 mL/body by subcutaneous administration from the tail root. […] The test compound was orally administered once a day from immediately after allocation on day 15 to day 20 at doses of 3 and 30 mg/kg, and the hindpaw volume was measured again on day 21. The amount of hindpaw edema was the difference in the amount between hindpaw volume on day 15 and that on day 21.

[6] = 10 mg/kg oral once a day to day 6, scored day 7
[7] = 3 mg/kg oral once a day to day 6, scored day 7

Row | SMILES | Experimental Example 2 proMMP-2 production suppression (% suppression, 10 μM) [1] [%] | IC50 [2] [nM] | also measured
1 | Cc1ccc(N2CCN(C(=O)c3ccc(N4CCOC4=O)cc3S(C)(=O)=O)CC2)c(C)c1 [Example 11, 3-{4-[4-(2,4-dimethylphenyl)piperazine-1-carbonyl]-3-methanesulfonylphenyl}oxazolidin-2-one] | 12.4 | 40 | 
2 | Cc1ccc(C(=O)C2CCN(C(=O)c3ccc(N4CCOC4=O)nc3)CC2)cc1 [Example 42, 3-{5-[4-(4-methylbenzoyl)piperidine-1-carbonyl]pyridin-2-yl}oxazolidin-2-one] |  |  | articular joint injury score of compound administration group [3, 6]: 3.8 ± 0.7
3 | Cc1cnc(N2CCN(C(=O)c3ccc(N4C(=O)OC[C@H]4C)nc3)CC2)c(C)c1.Cl.Cl [Example 109, (R)-3-{5-[4-(3,5-dimethylpyridin-2-yl)piperazine-1-carbonyl]pyridin-2-yl}-4-methyloxazolidin-2-one 2hydrochloride] |  |  | articular joint injury score of compound administration group [3, 7]: 4.1 ± 0.4
4 | Cc1ccc(N2CCN(C(=O)c3ccc(N4CCOC4=O)cc3C)CC2)c(C)c1 [Example 6, 3-{4-[4-(2,4-dimethylphenyl)piperazine-1-carbonyl]-3-methylphenyl}oxazolidin-2-one] | 12.6 | 59 | 
5 | Cc1ccc(N2CCN(C(=O)c3ccc(N4CCOC4=O)cc3)CC2)c(C)c1 [Example 8, 3-{4-[4-(2,4-dimethylphenyl)piperazine-1-carbonyl]phenyl}oxazolidin-2-one] | 11.6 | 48 | large intestine weight (g/100 g body weight) [4]: 0.457 ± 0.031 g/100 g body weight; hindpaw edema volume ([5]; 3 mg/kg oral once a day day 15 to day 20): 0.27 ± 0.17; hindpaw edema volume ([5]; 30 mg/kg oral once a day day 15 to day 20): 0.20 ± 0.18; articular joint injury score of compound administration group [3, 7]: 4.4 ± 0.5
6 | Cc1ccc(N2CCN(C(=O)c3ccc(N4C(=O)OC[C@H]4CO)cc3S(C)(=O)=O)CC2)c(C)c1 [Example 19, (R)-3-{4-[4-(2,4-dimethylphenyl)piperazine-1-carbonyl]-3-methanesulfonylphenyl}-4-hydroxymethyloxazolidin-2-one] | 22.5 | 11 | 
7 | Cc1ccc(N2CCN(C(=O)c3c(F)cc(N4CCOC4=O)cc3F)CC2)c(C)c1 [Example 1, 3-{4-[4-(2,4-dimethylphenyl)piperazine-1-carbonyl]-3,5-difluorophenyl}oxazolidin-2-one] | 17.4 | 44 | 
8 | Cc1cnc(N2CCN(C(=O)c3ccc(N4C(=O)OC[C@H]4C)cc3S(C)(=O)=O)CC2)c(C)c1 [Example 81, (R)-3-{4-[4-(3,5-dimethylpyridin-2-yl)piperazine-1-carbonyl]-3-methanesulfonylphenyl}-4-methyloxazolidin-2-one] |  |  | articular joint injury score of compound administration group [3, 6]: 4.4 ± 0.4
